These antisense oligonucleotides have a phosphorothioate backbone; sugars and methylation of C are not fully specified.
How the values were obtained:
Conditions in all cases: ASO
[1] = molecular target: MAP2K2
[2] = molecular target: MAP3K5
[3] = molecular target: XIAP
[4] = molecular target: BIRC5
Also: test concentration or dose not given here.

## TGGTTTGTGAGCATCTTC
[1]
  remaining target (mRNA or protein) (fraction of control): 0.29

## ATGTCATTGAGTATAGATTC
[2]
  remaining target (mRNA or protein) (fraction of control): 0.69

## TCCATCCCGTGACCGCTG
[1]
  remaining target (mRNA or protein) (fraction of control): 0.18

## CGTCCGCCTCCGTGCTCATC
[2]
  remaining target (mRNA or protein) (fraction of control): 0.12

## CCGTTGCCCGCGCCCAGC
[1]
  remaining target (mRNA or protein) (fraction of control): 0.24

## GTGCCCTGCAACCGCTCC
[1]
  remaining target (mRNA or protein) (fraction of control): 0.14

## ACGCAGGGAGCCCGGCCA
[1]
  remaining target (mRNA or protein) (fraction of control): 0.29

## AGGGTTTCCAGGGTGGCGCC
[2]
  remaining target (mRNA or protein) (fraction of control): 0.52

## ATTTATAGTTGCTCCCAGAT
[3]
  remaining target (mRNA or protein) (fraction of control): 0.58

## CACTCCTCAAGTGAATGAGT
[3]
  remaining target (mRNA or protein) (fraction of control): 0.52

## GGTTCTTGATGAGGCATT
[1]
  remaining target (mRNA or protein) (fraction of control): 0.31

## TAGGACTTGTCCACCTTTTC
[3]
  remaining target (mRNA or protein) (fraction of control): 0.58

## TCCTTGTTAACTGAGTATAT
[3]
  remaining target (mRNA or protein) (fraction of control): 0.69

## TCTCTCCGGGCCGGGCAGCA
[2]
  remaining target (mRNA or protein) (fraction of control): ≥ 1

## ATTCTCTAATCACACACA
[4]
  remaining target (mRNA or protein) (fraction of control): 0.74

## CTCATCTCTCCGGGCCGGGC
[2]
  remaining target (mRNA or protein) (fraction of control): 0.3

## ATTTGTTAAGCCTATCTGAA
[3]
  remaining target (mRNA or protein) (fraction of control): 0.66

## CGGTCGGTCGGCTCGAAT
[1]
  remaining target (mRNA or protein) (fraction of control): 0.8

## TACCTTCCGACGGCCAGC
[1]
  remaining target (mRNA or protein) (fraction of control): 0.18

## GCTTCTTGACAGAAAGGA
[4]
  remaining target (mRNA or protein) (fraction of control): 0.65

## GGCGCAGCCCTCCAAGAA
[4]
  remaining target (mRNA or protein) (fraction of control): 0.62

## AGCATGTTGTTCCCAAGGGT
[3]
  remaining target (mRNA or protein) (fraction of control): 0.54

## TAGCAAAAGTTTTTAATCTA
[3]
  remaining target (mRNA or protein) (fraction of control): 0.99

## ACAGTTGAAACATCTAAT
[4]
  remaining target (mRNA or protein) (fraction of control): ≥ 1

## TTCTAAAGTCTCTACCAGCT
[2]
  remaining target (mRNA or protein) (fraction of control): 0.24

## GATGTACGGCGAGTTGCA
[1]
  remaining target (mRNA or protein) (fraction of control): 0.81

## TTCAAAACTGTTAAAAGTCA
[3]
  remaining target (mRNA or protein) (fraction of control): ≥ 1

## TATTAACAACATACATACTT
[3]
  remaining target (mRNA or protein) (fraction of control): ≥ 1

## GCGATTCAAATCTGGCGG
[4]
  remaining target (mRNA or protein) (fraction of control): ≥ 1

## CGTGCTCATCTCTCCGGGCC
[2]
  remaining target (mRNA or protein) (fraction of control): 0.12

## GTGTCCTCAGCTGGAAGG
[1]
  remaining target (mRNA or protein) (fraction of control): 0.61

## TCTTTCAGCACCTGGTCC
[1]
  remaining target (mRNA or protein) (fraction of control): 0.48

## ACTGTTAAAAGTCATCTTCT
[3]
  remaining target (mRNA or protein) (fraction of control): 0.87

## TCAGATTCAACAGGCACC
[4]
  remaining target (mRNA or protein) (fraction of control): ≥ 1

## CTGGTTCAGCCGCAGGGT
[1]
  remaining target (mRNA or protein) (fraction of control): 0.34

## TCTTGGCTCTTTCTCTGT
[4]
  remaining target (mRNA or protein) (fraction of control): 0.66

## GACTTAGAATGGCTTTGT
[4]
  remaining target (mRNA or protein) (fraction of control): 0.63

## CAAATTCTCTGAGGCTTGCA
[2]
  remaining target (mRNA or protein) (fraction of control): 0.54

## CGCCTCCGTGCTCATCTCTC
[2]
  remaining target (mRNA or protein) (fraction of control): 0.1

## AGTAAACAAATACTGGATTT
[2]
  remaining target (mRNA or protein) (fraction of control): 0.77

## GTGCATGATCTGGTGCTT
[1]
  remaining target (mRNA or protein) (fraction of control): 0.24

## GCACGATCACATGAATGTTA
[2]
  remaining target (mRNA or protein) (fraction of control): 0.58

## GGTAGGGTTGATGGTGAG
[1]
  remaining target (mRNA or protein) (fraction of control): 0.56

## AAAAGTCATCTTCTCTTGAA
[3]
  remaining target (mRNA or protein) (fraction of control): 0.58

## TCCGTGCTCATCTCTCCGGG
[2]
  remaining target (mRNA or protein) (fraction of control): 0.17

## GCCGAGATGACCTCCAGA
[4]
  remaining target (mRNA or protein) (fraction of control): 0.34

## ATCTCAAGGTGGATCAGC
[1]
  remaining target (mRNA or protein) (fraction of control): 0.71

## GATGTCTGCAGGTACACAAG
[3]
  remaining target (mRNA or protein) (fraction of control): 0.56

## ATGACAGGGAGGAGGGCG
[4]
  remaining target (mRNA or protein) (fraction of control): ≥ 1

## AAGTCATCTTCTCTTGAAAA
[3]
  remaining target (mRNA or protein) (fraction of control): 0.6

## AGAAAATGGACAGAATCCTA
[3]
  remaining target (mRNA or protein) (fraction of control): 0.74

## TAGAGTCCAGCACTTGCTAA
[3]
  remaining target (mRNA or protein) (fraction of control): 0.4

## GGTCGTCATCTGGCTCCC
[4]
  remaining target (mRNA or protein) (fraction of control): 0.64

## CAACTAAAACACTGCCATGT
[3]
  remaining target (mRNA or protein) (fraction of control): 0.54

## CTTCTGCTGCTCGTCAAG
[1]
  remaining target (mRNA or protein) (fraction of control): 0.65

## TGAGCAACAGTCAAGTCTGT
[2]
  remaining target (mRNA or protein) (fraction of control): 0.56

## ACTGTGGAAGGCTCTGCC
[4]
  remaining target (mRNA or protein) (fraction of control): ≥ 1

## CACTGCTCGAGGAGGTGGCC
[2]
  remaining target (mRNA or protein) (fraction of control): 0.47

## TCTCCTCGGGAATCCTCT
[1]
  remaining target (mRNA or protein) (fraction of control): 0.43

## ATGATCTGGTTCCGGATG
[1]
  remaining target (mRNA or protein) (fraction of control): 0.35

## TTAAAAGTCATCTTCTCTTG
[3]
  remaining target (mRNA or protein) (fraction of control): ≥ 1

## CTCCCAGTTCATAAAATGGG
[2]
  remaining target (mRNA or protein) (fraction of control): 0.85

## TAACCTAAGGAAGCAGAG
[1]
  remaining target (mRNA or protein) (fraction of control): 0.33

## GAGGTACGCCAAGCCCCG
[1]
  remaining target (mRNA or protein) (fraction of control): 0.11

## TCCCTCACTTCTCACCTG
[4]
  remaining target (mRNA or protein) (fraction of control): 0.71

## GGCTGACAGACACACGGC
[4]
  remaining target (mRNA or protein) (fraction of control): 0.59

## AAGAAGATCAGCTCTGTATT
[2]
  remaining target (mRNA or protein) (fraction of control): 0.49

## GTCATCTTCTCTTGAAAATA
[3]
  remaining target (mRNA or protein) (fraction of control): 0.72

## AAAAGGAGTATCTGCCAG
[4]
  remaining target (mRNA or protein) (fraction of control): 0.61

From the OligoGym collection
